# According to patent US20140213648A1, “METHODS OF INCREASING EPA BLOOD LEVELS” (priority 2012, published 2014):
# Assay: 12-week placebo-controlled study: red blood cell fatty acid concentrations, ratios and proportions (GC/FID)
# Format: in vivo, human
# Conditions: for AA red blood cell concentration, change from baseline (LS mean (SE)) / AA red blood cell concentration, end-of-treatment (mean) / DHA red blood cell concentration, change from baseline (LS mean (SE)) / DHA red blood cell concentration, end-of-treatment (mean) / Linoleic red blood cell concentration, change from baseline (LS mean (SE)) / Linoleic red blood cell concentration, end-of-treatment (mean) / Oleic red blood cell concentration, change from baseline (LS mean (SE)) / Oleic red blood cell concentration, end-of-treatment (mean) / Palmitic red blood cell concentration, change from baseline (LS mean (SE)) / Palmitic red blood cell concentration, end-of-treatment (mean) / Proportion of monounsaturated fatty acids to total fatty acids in RBCs, change from baseline (LS mean (SE)) / Proportion of monounsaturated fatty acids to total fatty acids in RBCs, end-of-treatment (mean (SD)) / Proportion of saturated fatty acids to total fatty acids in RBCs, change from baseline (LS mean (SE)) / Proportion of saturated fatty acids to total fatty acids in RBCs, end-of-treatment (mean (SD)) / Proportion of total omega-3 fatty acids to total fatty acids in RBCs, change from baseline (LS mean (SE)) / Proportion of total omega-3 fatty acids to total fatty acids in RBCs, end-of-treatment (mean (SD)) / Proportion of total omega-6 fatty acids to total fatty acids in RBCs, change from baseline (LS mean (SE)) / Proportion of total omega-6 fatty acids to total fatty acids in RBCs, end-of-treatment (mean (SD)) / Ratio of AA/EPA in red blood cells, change from baseline (LS mean (SE)) / Ratio of AA/EPA in red blood cells, end-of-treatment (mean) / Ratio of n-3/n-6 FA in red blood cells, change from baseline (LS mean (SE)) / Ratio of n-3/n-6 FA in red blood cells, end-of-treatment (mean) / Stearic red blood cell concentration, change from baseline (LS mean (SE)) / Stearic red blood cell concentration, end-of-treatment (mean): week 12
# Method: A multi-center, placebo-controlled randomized, double-blind, 12-week study with an open-label extension is performed to evaluate the efficacy and safety of AMR101 in patients with fasting triglyceride levels ≧500 mg/dL. The primary objective of the study is to determine the efficacy of AMR101 2 g daily and 4 g daily, compared to placebo, in lowering fasting TG levels in patients with fasting TG levels ≧500 mg/dL and ≦1500 mg/dL (≧5.65 mmol/L and ≦16.94 mmol/L).
# Eligible patients will be randomly assigned at Visit 4 (Week 0) to receive orally AMR101 2 g daily, AMR101 4 g daily, or placebo for the 12-week double-blind treatment period. AMR101 is provided in 1 g liquid-filled, oblong, gelatin capsules. The matching placebo capsule is filled with light liquid paraffin and contains 0 g of AMR101. During the double-blind treatment period, patients will take 2 capsules (AMR101 or matching placebo) in the morning and 2 in the evening for a total of 4 capsules per day. Patients in the AMR101 2 g/day treatment group will receive 1 AMR101 1 g capsule and 1 matching placebo capsule in the morning and in the evening. Patients in the AMR101 4 g/day treatment group will receive 2 AMR101 1 g capsules in the morning and evening.
# Lipids were extracted from plasma and RBC suspensions and converted into fatty acid methyl esters for analysis using a standard validated gas chromatography/flame ionization detection method. Fatty acid parameters were compared between EPA treatment groups and placebo using an ANCOVA model with treatment, gender, type of statin therapy, and presence of diabetes as factors, and the baseline parameter value as a covariate. LSMs, SEs, and 2-tailed 95% confidence intervals for each treatment group and for each comparison were determined.
# [1] = 2 g/day vs placebo, week 12, P <0.0001
# [2] = 4 g/day vs placebo, week 12, P <0.0001
compound,measurement,setting,value
"CC/C=C\C/C=C\C/C=C\C/C=C\C/C=C\CCCC(=O)OCC [IPE, Icosapent ethyl]",Dose dependence of EPA concentration in RBCs (in words),"2 g/day or 4 g/day, 12 weeks","significantly increased EPA concentrations in a linear, dose-dependent fashion"
same,"AA red blood cell concentration, mean placebo-adjusted percent change from baseline","2 g/day vs placebo, week 12, P 0.0008",−8.0%
same,"Proportion of total omega-6 fatty acids to total fatty acids in RBCs, mean placebo-adjusted percent change from baseline","2 g/day vs placebo, week 12, P 0.0014",−13.2%
same,"Proportion of monounsaturated fatty acids to total fatty acids in RBCs, mean placebo-adjusted percent change from baseline","2 g/day vs placebo, week 12, P 0.0435",−3.1%
same,"Proportion of total omega-3 fatty acids to total fatty acids in RBCs, mean placebo-adjusted percent change from baseline","2 g/day vs placebo, week 12, P 0.1183",23.8%
same,"Linoleic red blood cell concentration, mean placebo-adjusted percent change from baseline","2 g/day vs placebo, week 12, P 0.1278",−4.7%
same,"Proportion of saturated fatty acids to total fatty acids in RBCs, mean placebo-adjusted percent change from baseline","2 g/day vs placebo, week 12, P 0.3278",1.1%
same,"Oleic red blood cell concentration, mean placebo-adjusted percent change from baseline","2 g/day vs placebo, week 12, P 0.3736",−2.1%
same,"DHA red blood cell concentration, mean placebo-adjusted percent change from baseline","2 g/day vs placebo, week 12, P 0.5859",−1.8%
same,"Stearic red blood cell concentration, mean placebo-adjusted percent change from baseline","2 g/day vs placebo, week 12, P 0.5886",1.1%
same,"Palmitic red blood cell concentration, mean placebo-adjusted percent change from baseline","2 g/day vs placebo, week 12, P 0.9465",−0.1%
same,"Ratio of AA/EPA in red blood cells, mean placebo-adjusted percent change from baseline",[1],−91.1%
same,"Ratio of n-3/n-6 FA in red blood cells, mean placebo-adjusted percent change from baseline",[1],65.5%
same,"AA red blood cell concentration, change from baseline (LS mean (SE))",2 g/day,−20.9 (3.2)
same,"AA red blood cell concentration, end-of-treatment (mean)",2 g/day,160.3
same,"DHA red blood cell concentration, change from baseline (LS mean (SE))",2 g/day,−7.3 (1.5)
same,"DHA red blood cell concentration, end-of-treatment (mean)",2 g/day,51.5
same,"Linoleic red blood cell concentration, change from baseline (LS mean (SE))",2 g/day,−10.7 (4.7)
same,"Linoleic red blood cell concentration, end-of-treatment (mean)",2 g/day,169.6
same,"Oleic red blood cell concentration, change from baseline (LS mean (SE))",2 g/day,−1.4 (4.1)
same,"Oleic red blood cell concentration, end-of-treatment (mean)",2 g/day,213.0
same,"Palmitic red blood cell concentration, change from baseline (LS mean (SE))",2 g/day,−2.9 (5.4)
same,"Palmitic red blood cell concentration, end-of-treatment (mean)",2 g/day,341.7
same,"Proportion of monounsaturated fatty acids to total fatty acids in RBCs, change from baseline (LS mean (SE))",2 g/day,−0.1 (0.3) mol %
same,"Proportion of monounsaturated fatty acids to total fatty acids in RBCs, end-of-treatment (mean (SD))",2 g/day,20.0 (1.9) mol %
same,"Proportion of saturated fatty acids to total fatty acids in RBCs, change from baseline (LS mean (SE))",2 g/day,0.3 (0.4) mol %
same,"Proportion of saturated fatty acids to total fatty acids in RBCs, end-of-treatment (mean (SD))",2 g/day,44.4 (3.0) mol %
same,"Proportion of total omega-3 fatty acids to total fatty acids in RBCs, change from baseline (LS mean (SE))",2 g/day,2.6 (0.3) mol %
same,"Proportion of total omega-3 fatty acids to total fatty acids in RBCs, end-of-treatment (mean (SD))",2 g/day,8.7 (2.2) mol %
same,"Proportion of total omega-6 fatty acids to total fatty acids in RBCs, change from baseline (LS mean (SE))",2 g/day,−2.9 (0.4) mol %
same,"Proportion of total omega-6 fatty acids to total fatty acids in RBCs, end-of-treatment (mean (SD))",2 g/day,27.0 (3.3) mol %
same,"Ratio of AA/EPA in red blood cells, change from baseline (LS mean (SE))",2 g/day,−17.7 (0.9)
same,"Ratio of AA/EPA in red blood cells, end-of-treatment (mean)",2 g/day,5.2
same,"Ratio of n-3/n-6 FA in red blood cells, change from baseline (LS mean (SE))",2 g/day,0.12 (0.010)
same,"Ratio of n-3/n-6 FA in red blood cells, end-of-treatment (mean)",2 g/day,0.33
same,"Stearic red blood cell concentration, change from baseline (LS mean (SE))",2 g/day,−4.7 (2.9)
same,"Stearic red blood cell concentration, end-of-treatment (mean)",2 g/day,179.0
same,"Proportion of total omega-3 fatty acids to total fatty acids in RBCs, mean placebo-adjusted percent change from baseline","4 g/day vs placebo, week 12, P 0.0008",53.4%
same,"Proportion of monounsaturated fatty acids to total fatty acids in RBCs, mean placebo-adjusted percent change from baseline","4 g/day vs placebo, week 12, P 0.0154",−3.9%
same,"Proportion of saturated fatty acids to total fatty acids in RBCs, mean placebo-adjusted percent change from baseline","4 g/day vs placebo, week 12, P 0.1145",1.9%
same,"DHA red blood cell concentration, mean placebo-adjusted percent change from baseline","4 g/day vs placebo, week 12, P 0.1216",−5.2%
same,"Oleic red blood cell concentration, mean placebo-adjusted percent change from baseline","4 g/day vs placebo, week 12, P 0.1325",−3.7%
same,"Palmitic red blood cell concentration, mean placebo-adjusted percent change from baseline","4 g/day vs placebo, week 12, P 0.7427",−0.7%
same,"Stearic red blood cell concentration, mean placebo-adjusted percent change from baseline","4 g/day vs placebo, week 12, P 0.7565",−0.7%
same,"AA red blood cell concentration, mean placebo-adjusted percent change from baseline",[2],−15.7%
same,"Linoleic red blood cell concentration, mean placebo-adjusted percent change from baseline",[2],−13.0%
same,"Proportion of total omega-6 fatty acids to total fatty acids in RBCs, mean placebo-adjusted percent change from baseline",[2],−17.3%
same,"Ratio of AA/EPA in red blood cells, mean placebo-adjusted percent change from baseline",[2],−102%
same,"Ratio of n-3/n-6 FA in red blood cells, mean placebo-adjusted percent change from baseline",[2],106.9%
same,"AA red blood cell concentration, change from baseline (LS mean (SE))",4 g/day,−36.2 (3.4)
same,"AA red blood cell concentration, end-of-treatment (mean)",4 g/day,148.8
same,"DHA red blood cell concentration, change from baseline (LS mean (SE))",4 g/day,−9.7 (1.6)
same,"DHA red blood cell concentration, end-of-treatment (mean)",4 g/day,51.7
same,"Linoleic red blood cell concentration, change from baseline (LS mean (SE))",4 g/day,−25.0 (4.9)
same,"Linoleic red blood cell concentration, end-of-treatment (mean)",4 g/day,164.7
same,"Oleic red blood cell concentration, change from baseline (LS mean (SE))",4 g/day,−5.6 (4.1)
same,"Oleic red blood cell concentration, end-of-treatment (mean)",4 g/day,208.3
same,"Palmitic red blood cell concentration, change from baseline (LS mean (SE))",4 g/day,−5.8 (5.7)
same,"Palmitic red blood cell concentration, end-of-treatment (mean)",4 g/day,340.6
same,"Proportion of monounsaturated fatty acids to total fatty acids in RBCs, change from baseline (LS mean (SE))",4 g/day,−0.2 (0.3) mol %
same,"Proportion of monounsaturated fatty acids to total fatty acids in RBCs, end-of-treatment (mean (SD))",4 g/day,19.5 (1.9) mol %
same,"Proportion of saturated fatty acids to total fatty acids in RBCs, change from baseline (LS mean (SE))",4 g/day,0.6 (0.4) mol %
same,"Proportion of saturated fatty acids to total fatty acids in RBCs, end-of-treatment (mean (SD))",4 g/day,44.5 (2.5) mol %
same,"Proportion of total omega-3 fatty acids to total fatty acids in RBCs, change from baseline (LS mean (SE))",4 g/day,4.1 (0.3) mol %
same,"Proportion of total omega-3 fatty acids to total fatty acids in RBCs, end-of-treatment (mean (SD))",4 g/day,10.4 (2.3) mol %
same,"Proportion of total omega-6 fatty acids to total fatty acids in RBCs, change from baseline (LS mean (SE))",4 g/day,−4.7 (0.5) mol %
same,"Proportion of total omega-6 fatty acids to total fatty acids in RBCs, end-of-treatment (mean (SD))",4 g/day,25.5 (2.9) mol %
same,"Ratio of AA/EPA in red blood cells, change from baseline (LS mean (SE))",4 g/day,−19.9 (1.0)
same,"Ratio of AA/EPA in red blood cells, end-of-treatment (mean)",4 g/day,3.1
same,"Ratio of n-3/n-6 FA in red blood cells, change from baseline (LS mean (SE))",4 g/day,0.20 (0.011)
same,"Ratio of n-3/n-6 FA in red blood cells, end-of-treatment (mean)",4 g/day,0.42
same,"Stearic red blood cell concentration, change from baseline (LS mean (SE))",4 g/day,−8.2 (3.1)
same,"Stearic red blood cell concentration, end-of-treatment (mean)",4 g/day,178.1
